In patent US7247756B2, “1,4-disubstituted benzenes as insecticides” (Bayer CropScience AG, priority 2000, dated 2007):
“And” between values parts separate entries of the source, which are not always exact repeats. Identical values can stand only once.

System: tobacco budworm (Heliothis virescens [Fabricius])
Experiment: surface-treated diet test against tobacco budworm
Type: in vivo
Conditions: second instar larvae, five-day exposure
Experimental: Candidate insecticides are evaluated for activity against the tobacco budworm (Heliothis virescens [Fabricius]) in a surface-treated diet test.
In this test one mL of molten (65–70° C.) wheat germ-based artificial diet is pipetted into each well of a four by six (24 well) multi-well plate (ID#430345-15.5 mm dia.×17.6 mm deep; Corning Costar Corp., One Alewife Center, Cambridge, Mass. 02140). The diet is allowed to cool to ambient temperature before treatment with candidate insecticide.
For a determination of insecticidal activity, solutions of the candidate insecticides are prepared for testing using a Packard 204DT Multiprobe® Robotic System (Packard Instrument Company, 800 Research Parkway, Meriden, Conn. 06450), in which the robot first dilutes a standard 50 millimolar DMSO solution of candidate insecticide with a 1:1 water/acetone solution (V/V) in a ratio of 1:7 stock solution to water/acetone. The robot subsequently pipettes 40 microliters of the so-prepared solution onto the surface of the diet in each of three wells in the 24 multi-well plate. The process is repeated with solutions of seven other candidate insecticides. Once treated, the contents of the multi-well plate are allowed to dry, leaving 0.25 millimoles of candidate insecticide on the surface of the diet, or a concentration of 0.25 millimolar. Appropriate untreated controls containing only DMSO on the diet surface are also included in this test.
For evaluations of the insecticidal activity of a candidate insecticide at varying rates of application, the test is established as described above using sub-multiples of the standard 50 millimolar DMSO solution of candidate insecticide. For example, the standard 50 millimolar solution is diluted by the robot with DMSO to give 5, 0.5, 0.05, 0.005, 0.0005 millimolar, or more dilute solutions of the candidate insecticide. In these evaluations there are six replicates of each rate of application placed on the surface of the diet in the 24 multi-well plate, for a total of four rates of application of candidate insecticide in each plate.
In each well of the test plate is placed one second instar tobacco budworm larvea, each weighing approximately five milligrams. After the larvae are placed in each well, the plate is sealed with clear polyfilm adhesive tape. The tape over each well is perforated to ensure an adequate air supply. The plates are then held in a growth chamber at 25° C. and 60% relative humidity for five days (light 14 hours/day).
After the five-day exposure period insecticidal activity for each rate of application of candidate insecticide is assessed as percent inhibition of insect weight relative to the weight of insects from untreated controls, and percent mortality when compared to the total number of insects infested.

[1] = rate of application 4.6 (negative log of the molar concentration of test compound in the diet)
[2] = rate of application 5.6 (negative log of the molar concentration of test compound in the diet)
[3] = rate of application 6.6 (negative log of the molar concentration of test compound in the diet)
[4] = rate of application 3.6 (negative log of the molar concentration of test compound in the diet)

Compound	Percent Growth Inhibition [2] [%]	Percent Growth Inhibition [3]	other results
CCN(CC)CCOc1ccc(COCc2ccc(Cl)c3ccccc23)cc1 [Compound 8, (2-(4-(((4-chloronaphthyl)methoxy)methyl)phenoxy)ethyl)diethylamine]			Percent Growth Inhibition [1]: 11%
CCN(CC)CCOc1ccc(CNc2ccc(Cl)c3ccccc23)cc1 [Compound 84, (2-(4-(((4-chloronaphthyl)amino)methyl)phenoxy)ethyl)diethylamine]	11		
CC1CCCC(C)N1CCOc1ccc(COc2ccc(Cl)c3ccccc23)cc1 (stereo not drawn) [Compound 106, 1-(2-(2,6-dimethylpiperidyl)ethoxy)-4-((4-chloronaphthyloxy)methyl)benzene]		35%	
CCN(CC)CCOc1ccc(COc2ccc(Cl)c3cc(Cl)ccc23)cc1 [Compound 216, (2-(4-((4,6-dichloronaphthyloxy)methyl)phenoxy)ethyl)diethylamine]		1%	
CCN(CC)CCOc1ccc(COc2cccc3c(Cl)c(Cl)ccc23)cc1 [Compound 223, (2-(4-((5,6-dichloronaphthyloxy)methyl)phenoxy)ethyl)diethylamine]		63%	
CCN(CC)CCOc1ccc(CNc2ccc(Cl)c3ccccc23)cc1OC [Compound 263, (2-(4-(((4-chloronaphthyl)amino)methyl)-2-methoxyphenoxy)ethyl)diethylamine]	26		
CCN(CC)CCOc1ccc(COc2ccc(Cl)c(Cl)c2Cl)cc1 [Compound 308, diethyl(2-(4-((2,3,4-trichlorophenoxy)methyl)phenoxy)ethyl)amine]	18		
CCN1CCN(c2ccc(COc3cccc4c(Cl)c(Cl)ccc34)cc2)CC1 [Compound 355, 1,2-dichloro-5-{[4-(4-ethylpiperazinyl)phenyl]methoxy}naphthalene]	96	−2%	Percent Growth Inhibition [4]: 100%; Percent Mortality [4]: 100%; Percent Growth Inhibition [1]: 100%; Percent Mortality [1]: 100%; Percent Mortality [2]: 17%
amino(2-(4-((5,6-dichloronaphthyloxy)methyl)phenoxy)ethyl)diethyl-1-one [Compound 183]		28% and 18%	
